Experiment [1] deals with T1, MtHISN2 (Medicago truncatula, UniProt A0A072U2X9, T112V).
T1 construct: gene MTR_7g084480; N-truncated at Val49 (chloroplast transit peptide removed), residues 49-283, N-terminal Ser-Asn-Ala linker left, His6-tag cleaved with TEV; E. coli BL21 Gold; both PRA-CH and PRA-PH domains
Nature of the experiment: isothermal titration calorimetry. It counts as binding. An excerpt:
(§1) isothermal titration calorimetry on MtHISN2 | Four mutants within the PRA-CH domain (K109A, T112V, S113A, and H143E)
In general terms: Isothermal titration calorimetry measures the heat released or taken up as one component is titrated into another.

Experiment [2] concerns the target T2, MtHISN2 (Medicago truncatula, UniProt A0A072U2X9, K109A).
T2 construct: gene MTR_7g084480; N-truncated at Val49 (chloroplast transit peptide removed), residues 49-283, N-terminal Ser-Asn-Ala linker left, His6-tag cleaved with TEV; E. coli BL21 Gold; both PRA-CH and PRA-PH domains
Nature of the experiment: isothermal titration calorimetry. It counts as binding.
Source text: as §1

Experiment [3] addresses T3, MtHISN2 (Medicago truncatula, UniProt A0A072U2X9, S113A).
T3 construct: gene MTR_7g084480; N-truncated at Val49 (chloroplast transit peptide removed), residues 49-283, N-terminal Ser-Asn-Ala linker left, His6-tag cleaved with TEV; E. coli BL21 Gold; both PRA-CH and PRA-PH domains
Description: isothermal titration calorimetry. It counts as binding.
Source text: as §1

For experiment [4], the target named is T4, MtHISN2 (Medicago truncatula, UniProt A0A072U2X9).
T4 construct: gene MTR_7g084480; N-truncated at Val49 (chloroplast transit peptide removed), residues 49-283, N-terminal Ser-Asn-Ala linker left, His6-tag cleaved with TEV; E. coli BL21 Gold; both PRA-CH and PRA-PH domains
T4 sequence (A0A072U2X9 entry or part of it): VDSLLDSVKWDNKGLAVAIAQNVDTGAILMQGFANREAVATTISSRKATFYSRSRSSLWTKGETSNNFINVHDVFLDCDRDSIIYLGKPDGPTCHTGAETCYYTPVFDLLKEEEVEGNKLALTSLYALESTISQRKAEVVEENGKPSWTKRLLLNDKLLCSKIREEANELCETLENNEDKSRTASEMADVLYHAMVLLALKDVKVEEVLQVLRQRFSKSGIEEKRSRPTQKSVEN
Nature of the experiment: ProFAR formation monitored at […] nm. It counts as biochemical.

Experiment [5] deals with T4, MtHISN2. Nature of the experiment: isothermal titration calorimetry. It counts as binding.
The target of experiment [6] is T5, MtHISN2 (Medicago truncatula, UniProt A0A072U2X9, H143E).
T5 construct: gene MTR_7g084480; N-truncated at Val49 (chloroplast transit peptide removed), residues 49-283, N-terminal Ser-Asn-Ala linker left, His6-tag cleaved with TEV; E. coli BL21 Gold; both PRA-CH and PRA-PH domains
T5 sequence (A0A072U2X9 entry or part of it H143E): as the sequence (A0A072U2X9 entry or part of it) above, with H95E counted along it
Nature of the experiment: isothermal titration calorimetry. The format is binding.

Experiment [7] deals with T6, MtHISN2 (Medicago truncatula, UniProt A0A072U2X9, T197V).
T6 construct: gene MTR_7g084480; N-truncated at Val49 (chloroplast transit peptide removed), residues 49-283, N-terminal Ser-Asn-Ala linker left, His6-tag cleaved with TEV; E. coli BL21 Gold; both PRA-CH and PRA-PH domains
T6 sequence (A0A072U2X9 entry or part of it T197V): as the sequence (A0A072U2X9 entry or part of it) above, with T149V counted along it
Description: isothermal titration calorimetry. It counts as binding. As to the method:
(§2) isothermal titration calorimetry on MtHISN2 | three within the PRA-PH domain (R183E, T197V, and Y240T) were tested

For experiment [8], the target named is T7, MtHISN2 (Medicago truncatula, UniProt A0A072U2X9, Y240T).
T7 construct: gene MTR_7g084480; N-truncated at Val49 (chloroplast transit peptide removed), residues 49-283, N-terminal Ser-Asn-Ala linker left, His6-tag cleaved with TEV; E. coli BL21 Gold; both PRA-CH and PRA-PH domains
T7 sequence (A0A072U2X9 entry or part of it Y240T): as the sequence (A0A072U2X9 entry or part of it) above, with Y192T counted along it
Description: isothermal titration calorimetry. It counts as binding. As to the method: as §2

In experiment [9] the target is T8, MtHISN2 (Medicago truncatula, UniProt A0A072U2X9, R183E).
T8 construct: gene MTR_7g084480; N-truncated at Val49 (chloroplast transit peptide removed), residues 49-283, N-terminal Ser-Asn-Ala linker left, His6-tag cleaved with TEV; E. coli BL21 Gold; both PRA-CH and PRA-PH domains
T8 sequence (A0A072U2X9 entry or part of it R183E): as the sequence (A0A072U2X9 entry or part of it) above, with R135E counted along it
Nature of the experiment: isothermal titration calorimetry. It counts as binding. As to the method: as §2

Experiment [10] concerns the target HISN2 enzyme from Medicago truncatula (MtHISN2), construct N-truncated at Val49 (Medicago truncatula). Description: SEC; HiLoad Superdex 200 16/60; 25 mM Hepes-NaOH pH 7.5, 100 mM KCl, 50 mM NaCl, 100 uM ZnCl2, 1 mM TCEP; elution profile not shown. On the technique in general: SEC sorts molecules by how far they enter the pores of the column.

T1 sequence (A0A072U2X9 entry or part of it T112V): as the sequence (A0A072U2X9 entry or part of it) above, with T64V counted along it
T3 sequence (A0A072U2X9 entry or part of it S113A): as the sequence (A0A072U2X9 entry or part of it) above, with S65A counted along it
T2 sequence (A0A072U2X9 entry or part of it K109A): as the sequence (A0A072U2X9 entry or part of it) above, with K61A counted along it

One may read the Kd as the equilibrium constant for the complex coming apart. A high value points to weaker binding. Broadly, the inhibition is how much of the control response was suppressed. Read a high inhibition as a strong effect. Regarding `Nc1ncnc2c1ncn2[C@@H]1O[C@H](COP(=O)(O)O)[C@@H](O)[C@H]1O` [AMP], the Kd was determined as 75 ± 8 µM at MtHISN2 [1]; 71 ± 18 µM on MtHISN2 [2]; 64 ± 12 µM on MtHISN2 [3]; 47 ± 6 µM on MtHISN2 [5]; 68 µM on MtHISN2 [6]; 29 ± 3 µM on MtHISN2 [7]. The values for the Kd at MtHISN2 [8] and on MtHISN2 [9] were 52 ± 9 µM and 31 ± 3 µM, respectively. Also, the inhibition at 100 µM on MtHISN2 [4] was over 60%.

As usually defined, the stoichiometry N is a count of units in the complex or per binding partner. In [10], “HISN2 enzyme from Medicago truncatula (MtHISN2), construct N-truncated at Val49” came in with a stoichiometry N of 2.
